Experimental data reported in article PMC4325551, “Inhibition of Rat 5α-Reductase Activity and Testosterone-Induced Sebum Synthesis in Hamster Sebocytes by an Extract of Quercus acutissima Cortex” (Evidence-based Complementary and Alternative Medicine : eCAM, 2015).

How the values were obtained:
[1] = system: primary hamster sebocytes (Ha-SE); assay: cell cytotoxicity (XTT) in undifferentiated hamster sebocytes; settings: 24 h with BK (10, 30 μg/mL) or pentagalloyl glucose (10, 30 μmol/L) in the presence of EGF
Procedure: Four Figures and Two Tables
Hamster-derived sebaceous gland cells (Ha-SE) were precultured until confluent in the presence of 10 ng/mL epidermal growth factor (EGF), and further cultured with 10, 30 […]
vehicle in the presence of EGF. Twenty four hours later, cell cytotoxicity was measured […]
Fig. S2. Bioconversion of exogenous dihydrotestosterone to 5α-androstane-3,17-diol by rat liver microsomal enzymes […]
min in the presence or absence of rat liver microsomes (40 μg/mL) and the co-factors.
The metabolites were extracted with ethyl acetate after incubation, and analyzed by TLC. All androgen standards were applied at 0.1 μg/μL/spot. T.: testosterone, DHT: dihydrotestosterone, A.diol: 5α-androstane-3α,17β-diol

[2] = molecular target: T1, rat liver microsomal 5α-reductase (Rattus norvegicus, UniProt P24008); assay: 5α-reductase assay using rat liver microsomes (testosterone metabolism, HPLC and TLC); type: biochemical; settings: for Inhibitory activity on 5α-reductase (% of control): mean ± SEM, N = 3
T1 construct: The reaction was started with the addition of liver microsomes (20 μg protein); from tissue; host or cells: liver microsomes of male Sprague–Dawley rats
T1 sequence (P24008 1-259): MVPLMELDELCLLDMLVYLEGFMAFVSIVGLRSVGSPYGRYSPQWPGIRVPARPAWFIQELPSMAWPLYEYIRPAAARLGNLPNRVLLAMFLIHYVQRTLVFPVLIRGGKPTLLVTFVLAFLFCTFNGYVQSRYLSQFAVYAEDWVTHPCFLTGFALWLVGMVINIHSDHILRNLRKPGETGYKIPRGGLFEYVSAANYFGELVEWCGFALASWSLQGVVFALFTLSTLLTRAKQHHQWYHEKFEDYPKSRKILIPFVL
Procedure: Rat liver microsomes were prepared by the method of Lee et al.. Male Sprague–Dawley rats (body weight, 300 to 320 g; Clea Japan, Tokyo, Japan) were fasted overnight to decrease the concentration of liver glycogen and then sacrificed. The liver was excised and washed in ice-cold homogenizing buffer containing 0.32 mol/L sucrose, 1 mmol/L dithiothreitol (Wako Pure Chemical Industries), and 20 mmol/L potassium phosphate, pH 6.5. The following procedures were all carried out at 4°C. The tissue was minced with a pair of scissors and then homogenized in homogenizing buffer using a Potter-Elvehjem grinder. The homogenate was then centrifuged at 10 000 g for 10 min. The resulting pellet was washed with two pellet volumes of homogenizing buffer and centrifuged again. The supernatants from the two centrifugations were combined and further centrifuged at 105 000 g for 1 h. The resulting pellet (microsomes) was suspended in homogenizing buffer and centrifuged again. The microsomes were resuspended in homogenizing buffer. The microsome suspension was divided into small aliquots and stored at −80°C. The microsomes were diluted with 40 mmol/L potassium phosphate, pH 6.5, immediately before use. Unlike human liver, rat liver microsomes have the 5α-R1 but not the 5α-R2 isoform.
Briefly, the reaction solution was preincubated with or without a test sample in 1 mmol/L dithiothreitol, 40 mmol/L potassium phosphate, pH 6.5, 100 μmol/L NADPH (Oriental Yeast, Tokyo, Japan), and 3.5 μmol/L testosterone (Wako Pure Chemical Industries) in a final volume of 0.5 mL for 20 min at room temperature. The reaction was started with the addition of liver microsomes (20 μg protein). After incubation at 37°C for 30 min, the reaction solution was extracted with 2 mL ethyl acetate. The ethyl acetate phase (upper phase) was transferred to a tube and evaporated using a centrifugal concentrator (Tomy Seiko, Tokyo, Japan). Testosterone and the metabolites were measured by two chromatography methods, HPLC (Shimadzu, Kyoto, Japan) and TLC.
The residue was dissolved in acetonitrile and analyzed using the HPLC system. The reverse-phase HPLC analysis was performed on a C18 column (3.0 × 150 mm, GL Science, Japan) at a column oven temperature of 50°C and UV detection of 240 nm. The isocratic mobile phase of acetonitrile/water (50 : 50, v/v) was flowed at 0.4 mL/min through the column.
To detect the steroids by TLC, the residue containing steroids was taken up in ethanol and chromatographed on a TLC plate (Silica gel 60 F254, Merck, Darmstadt, Germany), using ethyl acetate-hexane (1 : 1, v/v) as the developing solvent system at room temperature. Testosterone, (Tokyo Chemical Industry Co., Tokyo, Japan) and 5α-androstane-3α,17β-diol (Sigma-Aldrich) were applied to TLC as androgen standards. The plate was exposed to 10% sulfuric acid using an atomizer and then heated on a hot plate. The fluorescent signals were visualized by irradiation of UV light at 302 nm using a ChemiDoc XRS Plus (BIO-RAD, Hercules, CA).

[3] = system: primary hamster sebocytes (Ha-SE); assay: testosterone-induced sebum synthesis (lipogenesis) assay in hamster sebocytes; type: cell-based; settings: 10 and 30 μmol/L; 10 μmol/L testosterone; 8 days
Procedure: (§1) Primary hamster sebocytes (Ha-SE) were purchased from Kurabo Industries (Osaka, Japan) and maintained in a culture medium containing […] epidermal growth factor (EGF), 2% (v/v) human serum (HS), 8% (v/v) heat-inactivated fetal bovine serum (FBS) (Kurabo Industries), and a cocktail of penicillin G and streptomycin (Sigma-Aldrich). All assays using Ha-SE cells were performed between the 5th and 6th passage. For the study dealing with sebum synthesis, a sebum detecting kit (Kurabo industries) was used. […] The amount of sebum synthesized was evaluated by measuring lipid production and cell growth according to the manufacturer's instructions. That is, the lipid in sebaceous cells was stained with Oil Red O, extracted in 100% isopropanol, and quantified by a spectrometer at 520 nm. The cell growth was measured using XTT reagent (Biological Industries, Beit Haemek, Israel). The lipogenesis was calculated following the formula as relative sebum synthesis per cell number: lipogenesis = A/B, where A = OD 520 nm of 200 μL extract solution of 300 μL 100% isopropanol for extract of Oil red O dye and B = OD 465/630 nm of 200 μL of 450 μL culture fluids containing XTT reagent following incubation for 30 min. […]

[4] = system: primary hamster sebocytes (Ha-SE); assay: insulin-induced sebum synthesis (lipogenesis) assay in hamster sebocytes; type: cell-based; settings: 10 and 30 μmol/L; 10 μg/mL insulin; 8 days
Procedure: as §1

[5] = system: human intestinal epithelial Caco-2 cells; design: method as in PMID 16890919, PMID 16580640; settings: transport inhibited by phlorizin (SGLT-1 inhibitor); ref [34], [35]; cited from earlier work

O=C(OC[C@H]1O[C@@H](OC(=O)c2cc(O)c(O)c(O)c2)[C@H](OC(=O)c2cc(O)c(O)c(O)c2)[C@@H](OC(=O)c2cc(O)c(O)c(O)c2)[C@@H]1OC(=O)c1cc(O)c(O)c(O)c1)c1cc(O)c(O)c(O)c1 [Pentagalloyl glucose, 1,2,3,4,6-penta-O-galloyl glucose]
cell metabolic activities [1]: not changed compared with the vehicle control | inhibition of 5α-reductase activity ([2]; at 10 and 100 μmol/L): more than 50% | Inhibitory activity on 5α-reductase (% of control) ([2]; test sample 0.1 μmol/L, testosterone 3.5 μmol/L, 30 min, rat liver microsomes 40 μg/mL, HPLC): 5.4 ± 1.3 % of control | Inhibitory activity on 5α-reductase (% of control) ([2]; test sample 1 μmol/L, testosterone 3.5 μmol/L, 30 min, rat liver microsomes 40 μg/mL, HPLC): 36.1 ± 6.5 % of control | Inhibitory activity on 5α-reductase (% of control) ([2]; test sample 10 μmol/L, testosterone 3.5 μmol/L, 30 min, rat liver microsomes 40 μg/mL, HPLC): 83.5 ± 1.3 % of control | Inhibitory activity on 5α-reductase (% of control) ([2]; test sample 100 μmol/L, testosterone 3.5 μmol/L, 30 min, rat liver microsomes 40 μg/mL, HPLC): 107.9 ± 2.2 % of control | IC50 ([2]; testosterone 3.5 μmol/L, 30 min, rat liver microsomes 40 μg/mL, HPLC): 2.5 µM | testosterone-induced lipogenesis [3]: significantly downregulated | insulin-induced lipogenesis [4]: significantly downregulated | transport across Caco-2 monolayer [5]: crosses a monolayer
